Experimental data from ChEMBL document CHEMBL4359904, “Structural tuning of acridones for developing anticancer agents targeting dihydrofolate reductase” (Bioorg Med Chem Lett, 2019).
Calls of active or inactive are those of the source. The calls are words filed in the database; no cut-off is given here.

What was measured:
C6 [1] = assay: Antiproliferative activity against rat C6 cells assessed as decrease in cell viability measured after 48 hrs by MTT assay; format: functional, cell-based; conditions: for IC50: C6, 48 h
Dihydrofolate reductase = target: T1, Dihydrofolate reductase (Homo sapiens, UniProt P00374); assay: Inhibition of human dihydrofolate reductase using dihydrofolic acid as substrate preincubated for 1 hr in presence of NADPH followed by substrate addition by enzyme immunoassay
T1 sequence (P00374 whole entry): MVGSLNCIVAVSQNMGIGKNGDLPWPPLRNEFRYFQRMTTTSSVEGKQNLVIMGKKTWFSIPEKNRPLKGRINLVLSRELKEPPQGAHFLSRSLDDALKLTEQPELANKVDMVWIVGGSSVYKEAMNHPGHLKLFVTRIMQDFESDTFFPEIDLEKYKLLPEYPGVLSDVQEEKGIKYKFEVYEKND

C6 [2] = assay: Induction of morphological changes in rat C6 cells assessed as cellular senescence by measuring cell rounding with distorted morphology after 24 hrs by inverted microscopy analysis; format: functional, cell-based
C6 [3] = assay: Cell cycle arrest in rat C6 cells assessed as cell population at G0/G1 phase measured after 24 hrs by propidium iodide staining based flow cytometry analysis; format: functional
C6 [4] = assay: Cell cycle arrest in rat C6 cells assessed as increase in cell population at sub G0 phase measured after 24 hrs by propidium iodide staining based flow cytometry analysis; format: functional
C6 [5] = assay: Cell cycle arrest in rat C6 cells assessed as decrease in cell population at S phase measured after 24 hrs by propidium iodide staining based flow cytometry analysis; format: functional
C6 [6] = assay: Cell cycle arrest in rat C6 cells assessed as decrease in cell population at G2/M phase measured after 24 hrs by propidium iodide staining based flow cytometry analysis; format: functional
UO-31 = assay: Growth inhibition of human UO31 cells at 10^-5 M incubated for 48 hrs by sulforhodamine B assay relative to control; format: functional; conditions: UO-31, 48 h, read-out: GI
MCF7 = assay: Growth inhibition of human MCF7 cells at 10^-5 M incubated for 48 hrs by sulforhodamine B assay relative to control; format: functional; conditions: MCF7, 48 h, read-out: GI
C6 [7] = assay: Induction of morphological changes in rat C6 cells assessed as increase in total length of processes measured after 24 hrs by inverted microscopy analysis relative to control; format: functional

Structure (SMILES)	inhibition (C6 [1])	IC50 (C6 [1])	IC50 (Dihydrofolate reductase)	Activity (C6 [2])	Activity (C6 [3])	inhibition (C6 [6])	also measured
C[C@H](NC(=O)CNC(=O)c1cccc2c(=O)c3ccccc3[nH]c12)C(=O)O	Dose-dependent effect	250 to 1500 nM	670 nM	Active	inactive	–	–
COc1cccc2c1C(=O)c1c(O)c3c(c(O)c1C2=O)C[C@@](O)(C(=O)CO)C[C@@H]3O[C@H]1C[C@H](N)[C@@H](O)[C@H](C)O1	–	–	–	–	–	Active	Activity (C6 [4]): Active; inhibition (C6 [5]): Active
CC1=NN(c2cccc(Cl)c2)C(=O)/C1=C\c1cn(CC(O)Cn2c3ccccc3c(=O)c3ccccc32)c2ccccc12 (racemic)	–	–	1800 nM	–	–	–	–
O=C1Nc2ccccc2/C1=C/c1cn(CC(O)Cn2c3ccccc3c(=O)c3ccccc32)c2ccccc12 (racemic)	Dose-dependent effect	250 to 1500 nM	100 nM	Active	inactive	Active	inhibition of growth at 10 µM (UO-31): 70%; inhibition of growth at 10 µM (MCF7): 55%; Activity (C6 [7]): 16 - 18%
CN1C(=O)C(=Cc2cn(CC(O)Cn3c4ccccc4c(=O)c4ccccc43)c3ccccc23)C(=O)N(C)C1=O (racemic)	–	–	210 nM	–	–	–	–
